# Experimental data reported in US6737383B1, “Herbicidal oxadiazolidines” (priority 1999, dated 2004).
# Assays:
# blackgrass = experiment: Test B pre/postemergence blackgrass; type: in vivo, Alopecurus myosuroides
# Method in brief: (§1)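 Herbicidal effect was estimated by eye on a ten-point control scale after plants spent twelve to sixteen days in a greenhouse following soil or foliar treatment. Foliar sprays targeted plants at one to four leaves; all doses were formulated in a non-phytotoxic solvent with surfactant.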
# velvetleaf = experiment: Test B pre/postemergence velvetleaf; type: in vivo, Abutilon theophrasti
# Method in brief: as §1
# crabgrass = experiment: Test B pre/postemergence crabgrass; type: in vivo, Digitaria sanguinalis
# Method in brief: as §1
# purple nutsedge = experiment: Test B pre/postemergence purple nutsedge; type: in vivo, Cyperus rotundus
# Method in brief: as §1
# pigweed = experiment: Test B pre/postemergence pigweed; type: in vivo, Amaranthus retroflexus
# Method in brief: as §1
# cocklebur = experiment: Test B pre/postemergence cocklebur; type: in vivo, Xanthium strumarium
# Method in brief: as §1
# wild oat = experiment: Test B pre/postemergence wild oat; type: in vivo, Avena fatua
# Method in brief: as §1
# rape = experiment: Test B pre/postemergence rape; type: in vivo, Brassica napus
# Method in brief: as §1
# corn = experiment: Test B pre/postemergence corn; type: in vivo, Zea mays
# Method in brief: as §1
# wheat = experiment: Test B pre/postemergence wheat; type: in vivo, Triticum aestivum
# Method in brief: as §1
# morningglory = experiment: Test B pre/postemergence morningglory; type: in vivo, Ipomoea hederacea
# Method in brief: as §1
# soybean = experiment: Test B pre/postemergence soybean; type: in vivo, Glycine max
# Method in brief: as §1
# bedstraw = experiment: Test B pre/postemergence bedstraw; type: in vivo, Galium aparine
# Method in brief: as §1
# giant foxtail = experiment: Test B pre/postemergence giant foxtail; type: in vivo, Setaria faberii
# Method in brief: as §1
# surinam grass = experiment: Test B pre/postemergence surinam grass; type: in vivo, Brachiaria decumbens
# Method in brief: as §1
# sugar beet = experiment: Test B pre/postemergence sugar beet; type: in vivo, Beta vulgaris
# Method in brief: as §1
# [1] = Postemergence, Rate 62 g/ha, scale of 0 to 10, 0 is no effect, 10 is complete control
# [2] = Postemergence, Rate 125 g/ha, scale 0 to 10, 0 is no effect, 10 is complete control
# [3] = Postemergence, Rate 500 g/ha, scale 0 to 10, 0 is no effect, 10 is complete control
# [4] = Preemergence, Rate 62 g/ha, scale 0 to 10 (0 no effect, 10 complete control)
# [5] = Preemergence, Rate 125 g/ha, scale 0 to 10, 0 is no effect, 10 is complete control
# [6] = Preemergence, Rate 500 g/ha, scale of 0 to 10 where 0 is no effect and 10 is complete control
# [7] = Rate 250 g/ha, Postemergence, scale of 0 to 10 where 0 is no effect and 10 is complete control
compound,measurement,setting,value
CC(=O)OCCCCn1c(=O)on(C(=O)N(c2ccc(Cl)cc2)C(C)C)c1=O [Compound 536],Blackgrass plant response rating,blackgrass; [1],0
same,Blackgrass plant response rating,blackgrass; [2],0
same,"Plant response rating, Blackgrass",blackgrass; [3],0
same,Blackgrass plant response rating,blackgrass; [4],0
same,Blackgrass plant response rating,blackgrass; [5],0
same,Blackgrass plant response rating (0 to 10 scale),"blackgrass; Preemergence, Rate 250 g/ha",0
same,Blackgrass plant response rating,blackgrass; [6],0
same,"Plant response rating, Blackgrass",blackgrass; [7],0
same,Velvetleaf plant response rating,velvetleaf; [1],0
same,Velvetleaf plant response rating,velvetleaf; [2],0
same,"Plant response rating, Velvetleaf",velvetleaf; [3],0
same,Velvetleaf plant response rating,velvetleaf; [4],0
same,Velvetleaf plant response rating,velvetleaf; [5],0
same,Velvetleaf plant response rating (0 to 10 scale),"velvetleaf; Preemergence, Rate 250 g/ha",0
same,Velvetleaf plant response rating,velvetleaf; [6],0
same,"Plant response rating, Velvetleaf",velvetleaf; [7],0
same,Crabgrass plant response rating,crabgrass; [1],0
same,Crabgrass plant response rating,crabgrass; [2],5
same,"Plant response rating, Crabgrass",crabgrass; [3],3
same,Crabgrass plant response rating,crabgrass; [4],0
same,Crabgrass plant response rating,crabgrass; [5],0
same,Crabgrass plant response rating (0 to 10 scale),"crabgrass; Preemergence, Rate 250 g/ha",0
same,Crabgrass plant response rating,crabgrass; [6],2
same,"Plant response rating, Crabgrass",crabgrass; [7],5
same,Nutsedge plant response rating,purple nutsedge; [1],0
same,Nutsedge plant response rating,purple nutsedge; [2],0
same,"Plant response rating, Nutsedge",purple nutsedge; [3],0
same,Nutsedge plant response rating,purple nutsedge; [4],0
same,Nutsedge plant response rating,purple nutsedge; [5],0
same,Nutsedge plant response rating (0 to 10 scale),"purple nutsedge; Preemergence, Rate 250 g/ha",0
same,Nutsedge plant response rating,purple nutsedge; [6],0
same,"Plant response rating, Nutsedge",purple nutsedge; [7],0
same,Redroot pigweed plant response rating,pigweed; [1],0
same,Redroot pigweed plant response rating,pigweed; [2],0
same,"Plant response rating, Redroot pigweed",pigweed; [3],8
same,Redroot pigweed plant response rating,pigweed; [4],0
same,Redroot pigweed plant response rating,pigweed; [5],0
same,Redroot pigweed plant response rating (0 to 10 scale),"pigweed; Preemergence, Rate 250 g/ha",0
same,Redroot pigweed plant response rating,pigweed; [6],0
same,"Plant response rating, Redroot pigweed",pigweed; [7],0
same,Cocklebur plant response rating,cocklebur; [1],0
same,Cocklebur plant response rating,cocklebur; [2],0
same,"Plant response rating, Cocklebur",cocklebur; [3],0
same,Cocklebur plant response rating,cocklebur; [4],0
same,Cocklebur plant response rating,cocklebur; [5],0
same,Cocklebur plant response rating (0 to 10 scale),"cocklebur; Preemergence, Rate 250 g/ha",0
same,Cocklebur plant response rating,cocklebur; [6],0
same,"Plant response rating, Cocklebur",cocklebur; [7],0
same,Wild oats plant response rating,wild oat; [1],0
same,Wild oats plant response rating,wild oat; [2],0
same,"Plant response rating, Wild oats",wild oat; [3],0
same,Wild oats plant response rating,wild oat; [4],0
same,Wild oats plant response rating,wild oat; [5],0
same,Wild oats plant response rating (0 to 10 scale),"wild oat; Preemergence, Rate 250 g/ha",0
same,Wild oats plant response rating,wild oat; [6],0
same,"Plant response rating, Wild oats",wild oat; [7],0
same,Rape plant response rating,rape; [1],0
same,Rape plant response rating,rape; [2],0
same,"Plant response rating, Rape",rape; [3],0
same,Rape plant response rating,rape; [4],0
same,Rape plant response rating,rape; [5],0
same,Rape plant response rating (0 to 10 scale),"rape; Preemergence, Rate 250 g/ha",0
same,Rape plant response rating,rape; [6],0
same,"Plant response rating, Rape",rape; [7],0
same,Corn plant response rating,corn; [1],0
same,Corn plant response rating,corn; [2],0
same,"Plant response rating, Corn",corn; [3],0
same,Corn plant response rating,corn; [4],0
same,Corn plant response rating,corn; [5],0
same,Corn plant response rating (0 to 10 scale),"corn; Preemergence, Rate 250 g/ha",0
same,Corn plant response rating,corn; [6],0
same,"Plant response rating, Corn",corn; [7],0
same,Wheat plant response rating,wheat; [1],0
same,Wheat plant response rating,wheat; [2],0
same,"Plant response rating, Wheat",wheat; [3],0
same,Wheat plant response rating,wheat; [4],0
same,Wheat plant response rating,wheat; [5],0
same,Wheat plant response rating (0 to 10 scale),"wheat; Preemergence, Rate 250 g/ha",0
same,Wheat plant response rating,wheat; [6],0
same,"Plant response rating, Wheat",wheat; [7],0
same,Morningglory plant response rating,morningglory; [1],2
same,Morningglory plant response rating,morningglory; [2],2
same,"Plant response rating, Morningglory",morningglory; [3],2
same,Morningglory plant response rating,morningglory; [4],0
same,Morningglory plant response rating,morningglory; [5],0
same,"Plant response rating, Morningglory",morningglory; [7],2
same,Soybean plant response rating,soybean; [1],2
same,Soybean plant response rating,soybean; [2],4
same,"Plant response rating, Soybean",soybean; [3],6
same,Soybean plant response rating,soybean; [4],0
same,Soybean plant response rating,soybean; [5],0
same,Soybean plant response rating (0 to 10 scale),"soybean; Preemergence, Rate 250 g/ha",0
same,Soybean plant response rating,soybean; [6],0
same,"Plant response rating, Soybean",soybean; [7],4
same,Bedstraw plant response rating,bedstraw; [2],0
same,Bedstraw plant response rating,bedstraw; [4],0
same,Bedstraw plant response rating,bedstraw; [5],0
same,Bedstraw plant response rating (0 to 10 scale),"bedstraw; Preemergence, Rate 250 g/ha",0
same,Bedstraw plant response rating,bedstraw; [6],0
same,"Plant response rating, Bedstraw",bedstraw; [7],0
same,Giant foxtail plant response rating,giant foxtail; [1],0
same,Giant foxtail plant response rating,giant foxtail; [2],0
same,"Plant response rating, Giant foxtail",giant foxtail; [3],0
same,Giant foxtail plant response rating,giant foxtail; [4],7
same,Giant foxtail plant response rating,giant foxtail; [5],9
same,Giant foxtail plant response rating (0 to 10 scale),"giant foxtail; Preemergence, Rate 250 g/ha",10
same,Giant foxtail plant response rating,giant foxtail; [6],10
same,"Plant response rating, Giant foxtail",giant foxtail; [7],0
same,B. signalgrass plant response rating,surinam grass; [1],0
same,B. signalgrass plant response rating,surinam grass; [2],0
same,"Plant response rating, B. signalgrass",surinam grass; [3],0
same,B. signalgrass plant response rating,surinam grass; [4],0
same,B. signalgrass plant response rating,surinam grass; [5],0
same,"B. signalgrass plant response rating (0 to 10 scale, 0 is no effect, 10 is complete control)","surinam grass; Preemergence, Rate 250 g/ha",0
same,B. signalgrass plant response rating,surinam grass; [6],0
same,"Plant response rating, B. signalgrass",surinam grass; [7],0
same,Sugarbeets plant response rating,sugar beet; [1],0
same,Sugarbeets plant response rating,sugar beet; [2],0
same,"Plant response rating, Sugarbeets",sugar beet; [3],0
same,Sugarbeets plant response rating,sugar beet; [4],0
same,Sugarbeets plant response rating,sugar beet; [5],0
same,Sugarbeets plant response rating (0 to 10 scale),"sugar beet; Preemergence, Rate 250 g/ha",2
same,Sugarbeets plant response rating,sugar beet; [6],3
same,"Plant response rating, Sugarbeets",sugar beet; [7],0
